Assay results from patent publication US4348410A, “Cyclohexane carboxylic acid derivatives” (Nippon Chemiphar Co., Ltd., priority 1979, dated 1982).
Where two headings read alike, the source gives them in different places.

What was measured:
[1] = Acute toxicity; details: mouse, in vivo, po, 7 days observation
Experimental: […]. The test drugs were given orally using gastric sonde. […] The LD50 value was calculated by the Probit method (C.I. Bliss).

[2] = target: urokinase (Homo sapiens, UniProt P00749); assay: Inhibitory effects on urokinase (hydrolysis of N-acetylglycyl lysine methyl ester); type: biochemical; details: 37° C., 10 minutes; concentration not given
[3] = target: thrombin (Bos taurus, UniProt P00735); assay: Inhibitory effects on thrombin (hydrolysis of p-tosylarginine methyl ester); type: biochemical; details: 37° C., 10 minutes; concentration not given
[4] = test system: acetic acid ulcers; assay: Acetic acid ulcers; type: in vivo, Male Sprague-Dawley strain rats; details: for Ulcer Grade 1 (number of rats): ulcer area 0-10 mm^2; for Ulcer Grade 2 (number of rats): ulcer area 11-20 mm^2; for Ulcer Grade 3 (number of rats): ulcer area 21-30 mm^2; for Ulcer Grade 4 (number of rats): ulcer area 31-40 mm^2; for Ulcer Grade 5 (number of rats): ulcer area >40 mm^2
Experimental: Male Sprague-Dawley strain rats, weighing about 200 g were used. Under ether anesthesia 10% acetic acid solution (0.05 ml) was injected carefully between the serous membrane and the muscle near the pylorus, and the abdomen was closed. Thereafter, the animals were maintained under conditions and administered 1 ml/100 g of each test drug dissolved or suspended in 0.5% carboxymethylcellulose solution p.o. daily×10 starting from the next day of the operation. On the 11th day, the rats were sacrificed under ether anesthesia, and the stomachs were removed. The area of the ulcer was measured and graded into 5 degrees as an ulcer index according to the following method: […]

[5] = test system: Shay ulcers; assay: Shay ulcers (pylorus ligation); type: in vivo, Male Sprague-Dawley strain rats; details: for Ulcer Grade 0 (number of rats): 0=no lesion; for Ulcer Grade 1 (number of rats): 1=hemorrhagic suffusion; for Ulcer Grade 2 (number of rats): 2=1-5 small ulcers (<3 mm); for Ulcer Grade 3 (number of rats): 3=many small ulcers (more than 5) or 1 ulcer of marked size; for Ulcer Grade 4 (number of rats): 4=many ulcers of marked size; for Ulcer Grade 5 (number of rats): 5=perforated ulcer
Experimental: The rats were sacrificed 18 hours later by an overdose of ether and the stomach removed. The stomach was incised along the greater curvature and the surface area of each lesion in forestomach was measured by the naked eye. […] 4=many ulcers of marked size 5=perforated ulcer The test drugs were given intraperitoneally, immediately after pylorus ligation.

[6] = test system: gastric secretion; assay: Influence to the gastric secretion (pylorus ligation); type: in vivo, Male Sprague-Dawley strain rats
Experimental: Male Sprague-Dawley strain rats, weighing 160-180 g were deprived of food but allowed free access to water for 20 hours prior to experiment. […] The test drug was given intraperitoneally immediately after pylorus ligation. The rats were sacrificed 3, 6 and 12 hours later and the stomachs removed. The gastric juice was collected and analyzed for volume. Then the gastric juice was centrifuged at 1300 g for 10 minutes at room temperature to give the supernatant. The total acidity and peptic activity of the supernatant were determined. Total acidity was determined by titrating with 0.01 N NaOH. […] Total acidity is shown as the titration volume (ml) and peptic activity is shown as the corresponding weight (mg) to crystal pepsin.

In the case of N=C(N)NC[C@H]1CC[C@H](C(=O)Oc2ccccc2C(=O)OCc2ccccc2)CC1 [Compound 1], the LD50 at 168 h ([1]; female mice, read-out: LD50 Female) is reported as > 8000 mg/kg, the LD50 at 168 h ([1]; male mice, read-out: LD50 male) is reported as 7600 mg/kg and the “Inhibition (%) Urokinase” value [2] is reported as 32%. The “Inhibition (%) Thrombin” value [3] was 37%, the “Ulcer Grade 1 (number of rats)” value ([4]; 125 mg/kg p.o. daily×10) was 15 and the “Ulcer Grade 2 (number of rats)” value ([4]; 125 mg/kg p.o. daily×10) was 1. The “Ulcer Grade 3 (number of rats)” value ([4]; 125 mg/kg p.o. daily×10) was 2, the “Ulcer Grade 4 (number of rats)” value ([4]; 125 mg/kg p.o. daily×10) was 0 and the “Ulcer Grade 5 (number of rats)” value ([4]; 125 mg/kg p.o. daily×10) was 0. The “Ulcer Grade 1 (number of rats)” value ([4]; 250 mg/kg p.o. daily×10) was 14, the “Ulcer Grade 2 (number of rats)” value ([4]; 250 mg/kg p.o. daily×10) was 1 and the “Ulcer Grade 3 (number of rats)” value ([4]; 250 mg/kg p.o. daily×10) was 1. The “Ulcer Grade 4 (number of rats)” value ([4]; 250 mg/kg p.o. daily×10) was 0, the “Ulcer Grade 5 (number of rats)” value ([4]; 250 mg/kg p.o. daily×10) was 0 and the “Ulcer Grade 1 (number of rats)” value ([4]; 500 mg/kg p.o. daily×10) was 16. The “Ulcer Grade 2 (number of rats)” value ([4]; 500 mg/kg p.o. daily×10) was 2, the “Ulcer Grade 3 (number of rats)” value ([4]; 500 mg/kg p.o. daily×10) was 0 and the “Ulcer Grade 4 (number of rats)” value ([4]; 500 mg/kg p.o. daily×10) was 0. For the same molecule, the “Ulcer Grade 5 (number of rats)” value ([4]; 500 mg/kg p.o. daily×10) was 0, the “Ulcer Grade 0 (number of rats)” value ([5]; 75 mg/kg i.p.) was 8 and the “Ulcer Grade 1 (number of rats)” value ([5]; 75 mg/kg i.p.) was 0. For the same molecule, the “Ulcer Grade 2 (number of rats)” value ([5]; 75 mg/kg i.p.) was 2, the “Ulcer Grade 3 (number of rats)” value ([5]; 75 mg/kg i.p.) was 0 and the “Ulcer Grade 4 (number of rats)” value ([5]; 75 mg/kg i.p.) was 0. The “Ulcer Grade 5 (number of rats)” value ([5]; 75 mg/kg i.p.) was 0, the “Ulcer Grade 0 (number of rats)” value ([5]; 150 mg/kg i.p.) was 10 and the “Ulcer Grade 1 (number of rats)” value ([5]; 150 mg/kg i.p.) was 0. For the same molecule, the “Ulcer Grade 2 (number of rats)” value ([5]; 150 mg/kg i.p.) was 0, the “Ulcer Grade 3 (number of rats)” value ([5]; 150 mg/kg i.p.) was 0 and the “Ulcer Grade 4 (number of rats)” value ([5]; 150 mg/kg i.p.) was 0. The “Ulcer Grade 5 (number of rats)” value ([5]; 150 mg/kg i.p.) was 0, the “Ulcer Grade 0 (number of rats)” value ([5]; 300 mg/kg i.p.) was 7 and the “Ulcer Grade 1 (number of rats)” value ([5]; 300 mg/kg i.p.) was 0. The “Ulcer Grade 2 (number of rats)” value ([5]; 300 mg/kg i.p.) was 0, the “Ulcer Grade 3 (number of rats)” value ([5]; 300 mg/kg i.p.) was 0 and the “Ulcer Grade 4 (number of rats)” value ([5]; 300 mg/kg i.p.) was 0. For the same molecule, the “Ulcer Grade 5 (number of rats)” value ([5]; 300 mg/kg i.p.) was 0, the “Gastric Contents Volume” value ([6]; 3 hours, 75 mg/kg i.p.) was 2.6 ± 0.4 mL and the “Gastric Contents Volume % change” value ([6]; 3 hours, 75 mg/kg i.p.) was 10.3%. The “Titratable Acid Output” value ([6]; 3 hours, 75 mg/kg i.p.) was 39.2 ± 11.6 μEg, the “Titratable Acid Output % change” value ([6]; 3 hours, 75 mg/kg i.p.) was 52.5% and the “Titratable Pepsin Output” value ([6]; 3 hours, 75 mg/kg i.p.) was 5.7 ± 1.5 mg. The “Titratable Pepsin Output % change” value ([6]; 3 hours, 75 mg/kg i.p.) was 1.7%, the “Gastric Contents Volume” value ([6]; 3 hours, 150 mg/kg i.p.) was 0.7 ± 0.3 mL and the “Gastric Contents Volume % change” value ([6]; 3 hours, 150 mg/kg i.p.) was 75.9%. For the same molecule, the “Titratable Acid Output” value ([6]; 3 hours, 150 mg/kg i.p.) was 9.8 ± 3.3 μEg, the “Titratable Acid Output % change” value ([6]; 3 hours, 150 mg/kg i.p.) was 88.1% and the “Titratable Pepsin Output” value ([6]; 3 hours, 150 mg/kg i.p.) was 1.4 ± 0.7 mg. For the same molecule, the “Titratable Pepsin Output % change” value ([6]; 3 hours, 150 mg/kg i.p.) was 75.9%, the “Gastric Contents Volume” value ([6]; 3 hours, 300 mg/kg i.p.) was 0.5 ± 0.2 mL and the “Gastric Contents Volume % change” value ([6]; 3 hours, 300 mg/kg i.p.) was 82.8%. For the same molecule, the “Titratable Acid Output” value ([6]; 3 hours, 300 mg/kg i.p.) was 4.6 ± 3.3 μEg, the “Titratable Acid Output % change” value ([6]; 3 hours, 300 mg/kg i.p.) was 94.4% and the “Titratable Pepsin Output” value ([6]; 3 hours, 300 mg/kg i.p.) was 0.9 ± 0.6 mg. The “Titratable Pepsin Output % change” value ([6]; 3 hours, 300 mg/kg i.p.) was 84.5%, the “Gastric Contents Volume” value ([6]; 6 hours, 75 mg/kg i.p.) was 4.2 ± 0.6 mL and the “Gastric Contents Volume % change” value ([6]; 6 hours, 75 mg/kg i.p.) was 31.1%. The “Titratable Acid Output” value ([6]; 6 hours, 75 mg/kg i.p.) was 259.8 ± 61.8 μEq, the “Titratable Acid Output % change” value ([6]; 6 hours, 75 mg/kg i.p.) was 32.0% and the “Titratable Pepsin Output” value ([6]; 6 hours, 75 mg/kg i.p.) was 13.9 ± 3.0 mg. The “Titratable Pepsin Output % change” value ([6]; 6 hours, 75 mg/kg i.p.) was 35.9%, the “Gastric Contents Volume” value ([6]; 6 hours, 150 mg/kg i.p.) was 1.5 ± 0.3 mL and the “Gastric Contents Volume % change” value ([6]; 6 hours, 150 mg/kg i.p.) was 75.4%. The “Titratable Acid Output” value ([6]; 6 hours, 150 mg/kg i.p.) was 85.3 ± 49.4 μEq, the “Titratable Acid Output % change” value ([6]; 6 hours, 150 mg/kg i.p.) was 77.7% and the “Titratable Pepsin Output” value ([6]; 6 hours, 150 mg/kg i.p.) was 4.7 ± 1.1 mg. For the same molecule, the “Titratable Pepsin Output % change” value ([6]; 6 hours, 150 mg/kg i.p.) was 78.3%, the “Gastric Contents Volume” value ([6]; 6 hours, 300 mg/kg i.p.) was 1.5 ± 0.3 mL and the “Gastric Contents Volume % change” value ([6]; 6 hours, 300 mg/kg i.p.) was 75.4%. For the same molecule, the “Titratable Acid Output” value ([6]; 6 hours, 300 mg/kg i.p.) was 70.4 ± 30.4 μEq, the “Titratable Acid Output % change” value ([6]; 6 hours, 300 mg/kg i.p.) was 81.6% and the “Titratable Pepsin Output” value ([6]; 6 hours, 300 mg/kg i.p.) was 3.5 ± 1.4 mg. For the same molecule, the “Titratable Pepsin Output % change” value ([6]; 6 hours, 300 mg/kg i.p.) was 83.9%, the “Gastric Contents Volume” value ([6]; 12 hours, 75 mg/kg i.p.) was 5.2 ± 2.1 mL and the “Gastric Contents Volume % change” value ([6]; 12 hours, 75 mg/kg i.p.) was 61.5%. For the same molecule, the “Titratable Acid Output” value ([6]; 12 hours, 75 mg/kg i.p.) was 394.6 ± 136.5 μEq, the “Titratable Acid Output % change” value ([6]; 12 hours, 75 mg/kg i.p.) was 51.9% and the “Titratable Pepsin Output” value ([6]; 12 hours, 75 mg/kg i.p.) was 27.3 ± 8.6 mg. The “Titratable Pepsin Output % change” value ([6]; 12 hours, 75 mg/kg i.p.) was 52.9%, the “Gastric Contents Volume” value ([6]; 12 hours, 150 mg/kg i.p.) was 6.3 ± 0.9 mL and the “Gastric Contents Volume % change” value ([6]; 12 hours, 150 mg/kg i.p.) was 53.3%. The “Titratable Acid Output” value ([6]; 12 hours, 150 mg/kg i.p.) was 387.3 ± 79.3 μEq, the “Titratable Acid Output % change” value ([6]; 12 hours, 150 mg/kg i.p.) was 52.8% and the “Titratable Pepsin Output” value ([6]; 12 hours, 150 mg/kg i.p.) was 24.0 ± 4.2 mg. For the same molecule, the “Titratable Pepsin Output % change” value ([6]; 12 hours, 150 mg/kg i.p.) was 58.6%, the “Gastric Contents Volume” value ([6]; 12 hours, 300 mg/kg i.p.) was 3.6 ± 0.6 mL and the “Gastric Contents Volume % change” value ([6]; 12 hours, 300 mg/kg i.p.) was 73.3%. The “Titratable Acid Output” value ([6]; 12 hours, 300 mg/kg i.p.) was 258.4 ± 66.9 μEq, the “Titratable Acid Output % change” value ([6]; 12 hours, 300 mg/kg i.p.) was 68.5% and the “Titratable Pepsin Output” value ([6]; 12 hours, 300 mg/kg i.p.) was 14.0 ± 2.4 mg. For the same molecule, the “Titratable Pepsin Output % change” value ([6]; 12 hours, 300 mg/kg i.p.) was 75.9%.
